According to patent publication US8361998B2, “Compounds and their use as IKACh blockers” (AstraZeneca AB, priority 2010, dated 2013):
Read-outs that look alike come from different tables or passages of the source.

Target: T1, human cardiac ion channel proteins hKir3.1/Kir3.4 (Homo sapiens, UniProt P48544+P48549)
T1 construct: expressed in transfected cells
T1 sequence (P48549 1-501): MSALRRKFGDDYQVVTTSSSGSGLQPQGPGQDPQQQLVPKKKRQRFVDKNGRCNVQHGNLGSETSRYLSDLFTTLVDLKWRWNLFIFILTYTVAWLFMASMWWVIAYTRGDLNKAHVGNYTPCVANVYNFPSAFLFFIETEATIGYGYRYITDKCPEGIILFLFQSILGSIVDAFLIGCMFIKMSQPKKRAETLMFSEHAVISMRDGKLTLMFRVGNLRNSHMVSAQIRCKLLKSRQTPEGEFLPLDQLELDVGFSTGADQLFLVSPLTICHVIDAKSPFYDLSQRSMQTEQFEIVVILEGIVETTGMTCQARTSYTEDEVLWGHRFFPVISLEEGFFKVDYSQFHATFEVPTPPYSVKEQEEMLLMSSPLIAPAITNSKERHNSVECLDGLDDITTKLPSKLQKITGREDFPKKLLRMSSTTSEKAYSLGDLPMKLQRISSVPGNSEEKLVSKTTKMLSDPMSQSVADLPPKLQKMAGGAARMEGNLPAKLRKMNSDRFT
T1 sequence (P48544 1-419): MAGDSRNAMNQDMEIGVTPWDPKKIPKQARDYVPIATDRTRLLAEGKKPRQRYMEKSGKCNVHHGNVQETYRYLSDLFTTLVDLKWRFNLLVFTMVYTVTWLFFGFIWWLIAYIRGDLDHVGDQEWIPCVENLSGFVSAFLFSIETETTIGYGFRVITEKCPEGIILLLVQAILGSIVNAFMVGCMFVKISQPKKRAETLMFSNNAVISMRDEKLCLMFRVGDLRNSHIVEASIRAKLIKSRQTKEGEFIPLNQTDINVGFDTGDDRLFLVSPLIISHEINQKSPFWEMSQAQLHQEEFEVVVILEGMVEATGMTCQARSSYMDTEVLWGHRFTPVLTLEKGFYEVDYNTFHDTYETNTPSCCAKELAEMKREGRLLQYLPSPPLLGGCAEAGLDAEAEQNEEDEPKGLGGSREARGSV
Assay: Atomic Absorption Screening (AAS) Rb efflux assay of hKir3.1/Kir3.4 block, carbachol/high K+ stimulated, 10-pt or 7-pt CR
Type: cell-based
Conditions: AAS Rb efflux, CHO-K1 cells expressing hKir3.1/Kir3.4
In short: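 CHO-K1 cells stably co-expressing human Kir3.1/Kir3.4 were Rb-loaded for 3 h at 37° C, preincubated with compound 5 min at RT, then stimulated 10 min with 10 μM carbachol plus 20 mM KCl (final). Supernatant Rb was measured by atomic absorption. Compounds ran at 0.003–67 μmol/L (10-pt) or 0.037–27 μmol/L (7-pt), threefold dilutions; IC50s are means of >4 or >3 replicates respectively.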

[1] = 10-pt CR (0.003 to 67 μmol/L), mean of >4 replicates, read-out: IKACh IC50 10-pt CR, AAS

| Compound | IC50 [1] | IC50 (7-pt CR (0.037 to 27 μmol/L), mean of >3 replicates, read-out: IKACh IC50 7-pt CR, AAS) |
| --- | --- | --- |
| CN(C(=O)c1ccc(F)c(Cl)c1)[C@H](CN1CC(O)(C2CC2)C1)C1CC1 [Example 9.2, (S)-3-Chloro-N-(1-cyclopropyl-2-(3-cyclopropyl-3-hydroxyazetidin-1-yl)ethyl)-4-fluoro-N-methylbenzamide] | 1.2 µM | – |
| CN(C(=O)c1ccc(F)c(F)c1)[C@H](CN1CC(O)(C2CC2)C1)C1CC1 [Example 9.3, (S)-N-(1-Cyclopropyl-2-(3-cyclopropyl-3-hydroxyazetidin-1-yl)ethyl)-3,4-difluoro-N-methylbenzamide] | 3.1 µM | – |
| CN(C(=O)c1ccc(C#N)cc1)[C@H](CN1CC(O)(C2CC2)C1)C1CC1 [Example 9.4, (S)-4-Cyano-N-(1-cyclopropyl-2-(3-cyclopropyl-3-hydroxyazetidin-1-yl)ethyl)-N-methylbenzamide] | 14 µM | – |
| Cc1ccc(C(=O)N(C)[C@H](CN2CC(O)(C3CC3)C2)C2CC2)cc1C [Example 9.5, (S)-N-(1-Cyclopropyl-2-(3-cyclopropyl-3-hydroxyazetidin-1-yl)ethyl)-N,3,4-trimethylbenzamide] | 1.3 µM | – |
| CC(C)[C@@H](CN1CC(C)(O)C1)N(C)C(=O)c1ccc(Br)cc1 [Example 9.6, (S)-4-Bromo-N-(1-(3-hydroxy-3-methylazetidin-1-yl)-3-methyl-butan-2-yl)-N-methylbenzamide] | 2.8 µM | – |
| CC(C)[C@@H](CN1CC(C)(O)C1)N(C)C(=O)c1ccc(Cl)cc1 [Example 9.7, (S)-4-Chloro-N-(1-(3-hydroxy-3-methylazetidin-1-yl)-3-methyl-butan-2-yl)-N-methylbenzamide] | 8.6 µM | – |
| CC(C)[C@@H](CN1CC(C)(O)C1)N(C)C(=O)c1ccc(F)c(C(F)(F)F)c1 [Example 9.8, (S)-4-Fluoro-N-(1-(3-hydroxy-3-methylazetidin-1-yl)-3-methyl-butan-2-yl)-N-methyl-3-(trifluoromethyl)benzamide] | 5.3 µM | – |
| CN(C(=O)c1ccc(F)c(F)c1)[C@H](CN1CC(O)C1)C1CC1 [Example 9.9, (S)-N-(1-Cyclopropyl-2-(3-hydroxyazetidin-1-yl)ethyl)-3,4-difluoro-N-methylbenzamide] | 11 µM | – |
| Cc1ccc(C(=O)N(C)[C@H](CN2CCC2)C2CC2)cc1C [Example 9.10, N-[(1S)-2-(azetidin-1-yl)-1-cyclopropylethyl]-N,3,4-trimethylbenzamide] | 2.1 µM | – |
| CN(C(=O)c1ccc(F)c(F)c1)[C@H](CN1CCC1)C1CC1 [Example 9.11, (S)-N-(2-(Azetidin-1-yl)-1-cyclopropylethyl)-3,4-difluoro-N-methylbenzamide] | 12 µM | – |
| CC(C)[C@@H](CN1CC[C@H](O)C1)N(C)C(=O)c1ccc(F)cc1Cl [Example 10.1, (3S)-1-((S)-2-(2-Chloro-4-fluoro-N-methylbenzamido)-3-methylbutyl)-3-hydroxypyrrolidinium 2,3-dihydroxysuccinate] | 6.1 µM | 3.7 µM |
| CCN(C(=O)c1ccc(Cl)cc1)[C@H](CN1CCC1)C(C)C [Example 11, (S)—N-(1-(Azetidin-1-yl)-3-methylbutan-2-yl)-4-chloro-N-ethylbenzamide] | 5.6 µM | – |
| CN(C(=O)c1ccc(F)c(Cl)c1)[C@H](CN1CCCC1)C1CC1 [Example 13.1, (S)-3-Chloro-N-(1-cyclopropyl-2-(pyrrolidin-1-yl)ethyl)-4-fluoro-N-methylbenzamide] | 2.5 µM | – |
| Cc1ccc(C(=O)N(C)[C@H](CN2CCCC2)C2CC2)cc1C [Example 13.2, (S)-N-(1-Cyclopropyl-2-(pyrrolidin-1-yl)ethyl)-N,3,4-trimethyl-benzamide] | 3.9 µM | – |
| CC(C)[C@@H](CCN1CCCC1)N(C)C(=O)c1cccc(Cl)c1 [Example 13.3, (R)-3-Chloro-N-methyl-N-(4-methyl-1-(pyrrolidin-1-yl)pentan-3-yl)benzamide] | 19 µM | – |
| Cc1cc(C(=O)N(C)[C@H](CCN2CCCC2)C(C)C)ccc1F [Example 13.4, (R)-4-Fluoro-N,3-dimethyl-N-(4-methyl-1-(pyrrolidin-1-yl)pentan-3-yl)benzamide] | 19 µM | – |
| Cc1cc(C(=O)N(C)[C@H](CN2CCCC2)[C@@H](C)OC(C)(C)C)ccc1F [Example 14, N-((2R,3R)-3-Tert-butoxy-1-(pyrrolidin-1-yl)butan-2-yl)-4-fluoro-N,3-dimethylbenzamide] | 16 µM | – |
| CCN(C(=O)c1ccc(Br)cc1)[C@H](CN1CCCC1)C(C)C [Example 15.1, (S)-4-Bromo-N-ethyl-N-(3-methyl-1-(pyrrolidin-1-yl)butan-2-yl)benzamide] | 11 µM | – |
| CCN(C(=O)c1ccc(F)c(C)c1)[C@H](CN1CCCC1)C(C)C [Example 15.2, (S)-N-Ethyl-4-fluoro-3-methyl-N-(3-methyl-1-(pyrrolidin-1-yl)butan-2-yl)benzamide] | 18 µM | – |
| CCN(C(=O)c1ccc(Cl)cc1)[C@H](CN1CCCC1)C(C)C [Example 15.3, (S)-4-Chloro-N-ethyl-N-(3-methyl-1-(pyrrolidin-1-yl)butan-2-yl)benzamide] | 7.4 µM | – |
| COCCN(C(=O)c1ccc(Cl)cc1)[C@H](CN1CCCC1)C(C)C [Example 15.4, (S)-4-Chloro-N-(2-methoxyethyl)-N-(3-methyl-1-(pyrrolidin-1-yl)butan-2-yl)benzamide] | 5.7 µM | – |
| COCCN(C(=O)c1ccc(Br)cc1)[C@H](CN1CCCC1)C(C)C [Example 15.5, (S)-4-Bromo-N-(2-methoxyethyl)-N-(3-methyl-1-(pyrrolidin-1-yl)butan-2-yl)benzamide] | 2.3 µM | – |
| CC(C)[C@@H](CN1CCCC(F)(F)C1)N(C)C(=O)c1ccc(F)c(Cl)c1 [Example 16.1, (S)-3-Chloro-N-(1-(3,3-difluoropiperidin-1-yl)-3-methylbutan-2-yl)-4-fluoro-N-methylbenzamide] | 17 µM | – |
| CC(C)[C@@H](CN1CCCC(F)(F)C1)N(C)C(=O)c1ccc(F)c(C(F)(F)F)c1 [Example 16.2, (S)—N-(1-(3,3-Difluoropiperidin-1-yl)-3-methylbutan-2-yl)-4-fluoro-N-methyl-3-(trifluoromethyl)benzamide] | 15 µM | – |
| Cc1ccc(C(=O)N(C)[C@H](CN2CCCC(F)(F)C2)C(C)C)cc1C [Example 16.3, (S)—N-(1-(3,3-Difluoropiperidin-1-yl)-3-methylbutan-2-yl)-N,3,4-trimethylbenzamide] | 11 µM | – |
| COc1cc(C(=O)N(C)[C@H](CN2CCCC(F)(F)C2)C(C)C)ccc1C [Example 16.4, (S)—N-(1-(3,3-Difluoropiperidin-1-yl)-3-methylbutan-2-yl)-3-methoxy-N,4-dimethylbenzamide] | 18 µM | – |
| CC(C)[C@@H](CN1CCCC(F)(F)C1)N(C)C(=O)c1ccc(Br)cc1 [Example 16.5, (S)-4-Bromo-N-(1-(3,3-difluoropiperidin-1-yl)-3-methylbutan-2-yl)-N-methyl-benzamide] | 11 µM | – |
| CN(C(=O)c1ccc(Cl)cc1)C(C)(C)CN1CCCC1 [Example 16.6, 4-Chloro-N-methyl-N-(2-methyl-1-(pyrrolidin-1-yl)propan-2-yl)benzamide] | 20 µM | – |
| CN(C(=O)c1ccc(Br)cc1)C(C)(C)CN1CCCC1 [Example 16.7, 4-Bromo-N-methyl-N-(2-methyl-1-(pyrrolidin-1-yl)propan-2-yl)benzamide] | 14 µM | – |
